Data from PubChem BioAssay (NCI).
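Step 1: Grow cells in 96-well plates. Step 2: Expose to compound for 48 hours at 5 concentrations. Step 3: Interpolate endpoints linearly; if unreached, use highest concentration. GI50 is the concentration that inhibits growth by half. TGI: total growth inhibition.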

What was measured:
Assay in all cases: NCI-60 cell line screen, 48 h
SN12C renal = system: SN12C renal
SNB-19 CNS = system: SNB-19 CNS
MDA-MB-231 breast = system: MDA-MB-231 breast
NCI/ADR-RES ovarian = system: NCI/ADR-RES ovarian
U251 CNS = system: U251 CNS
OVCAR-3 ovarian = system: OVCAR-3 ovarian
HCT-116 colon = system: HCT-116 colon
HL-60(TB) leukemia = system: HL-60(TB) leukemia
NCI-H460 lung = system: NCI-H460 lung
UACC-257 melanoma = system: UACC-257 melanoma
MOLT-4 leukemia = system: MOLT-4 leukemia
PC-3 prostate = system: PC-3 prostate
SK-MEL-2 melanoma = system: SK-MEL-2 melanoma
OVCAR-4 ovarian = system: OVCAR-4 ovarian
SK-MEL-5 melanoma = system: SK-MEL-5 melanoma
UACC-62 melanoma = system: UACC-62 melanoma
CAKI-1 renal = system: CAKI-1 renal
KM12 colon = system: KM12 colon
K-562 leukemia = system: K-562 leukemia
HT29 colon = system: HT29 colon
MALME-3M melanoma = system: MALME-3M melanoma
UO-31 renal = system: UO-31 renal
LOX IMVI melanoma = system: LOX IMVI melanoma
TK-10 renal = system: TK-10 renal
SR leukemia = system: SR leukemia
SW-620 colon = system: SW-620 colon
RPMI-8226 leukemia = system: RPMI-8226 leukemia
EKVX NSCLC = system: EKVX NSCLC
RXF 393 renal = system: RXF 393 renal
NCI-H226 lung = system: NCI-H226 lung
HS 578T breast = system: HS 578T breast
HCT-15 colon = system: HCT-15 colon
DU-145 prostate = system: DU-145 prostate
A549 NSCLC = system: A549 NSCLC
M14 melanoma = system: M14 melanoma
HOP-62 NSCLC = system: HOP-62 NSCLC
SNB-75 CNS = system: SNB-75 CNS
OVCAR-8 ovarian = system: OVCAR-8 ovarian
CCRF-CEM leukemia = system: CCRF-CEM leukemia
COLO 205 colon = system: COLO 205 colon
T-47D breast = system: T-47D breast
MDA-MB-435 = system: MDA-MB-435
NCI-H522 lung = system: NCI-H522 lung
SK-OV-3 ovarian = system: SK-OV-3 ovarian
OVCAR-5 ovarian = system: OVCAR-5 ovarian
786-0 renal = system: 786-0 renal
HCC-2998 colon = system: HCC-2998 colon
NCI-H23 lung = system: NCI-H23 lung
A498 renal = system: A498 renal
HOP-92 NSCLC = system: HOP-92 NSCLC
SF-268 CNS = system: SF-268 CNS
MCF7 breast = system: MCF7 breast
SF-295 CNS = system: SF-295 CNS
SF-539 CNS = system: SF-539 CNS
ACHN renal = system: ACHN renal
SK-MEL-28 melanoma = system: SK-MEL-28 melanoma
IGROV1 ovarian = system: IGROV1 ovarian

CCC(/C=C(C)/C=C/C(=O)c1c(O)c(-c2ccc(O)cc2)c[nH]c1=O)CO (centres undefined)
GI50 (SN12C renal): 11.8 µM | TGI (SN12C renal): 41.9 µM | GI50 (SNB-19 CNS): 11.9 µM | TGI (SNB-19 CNS): 27.4 µM | GI50 (MDA-MB-231 breast): 9.17 µM | TGI (MDA-MB-231 breast): 29.5 µM | GI50 (NCI/ADR-RES ovarian): 21.6 µM | TGI (NCI/ADR-RES ovarian): > 100 µM | GI50 (U251 CNS): 6.91 µM | TGI (U251 CNS): 23.9 µM | GI50 (OVCAR-3 ovarian): 3.8 µM | TGI (OVCAR-3 ovarian): 16.1 µM | GI50 (HCT-116 colon): 6.61 µM | TGI (HCT-116 colon): 19.2 µM | GI50 (HL-60(TB) leukemia): 2.83 µM | TGI (HL-60(TB) leukemia): 17.4 µM | GI50 (NCI-H460 lung): 6.15 µM | TGI (NCI-H460 lung): 21.9 µM | GI50 (UACC-257 melanoma): 11.3 µM | TGI (UACC-257 melanoma): 25 µM | GI50 (MOLT-4 leukemia): 5.84 µM | TGI (MOLT-4 leukemia): 44.2 µM | GI50 (PC-3 prostate): 14.3 µM | TGI (PC-3 prostate): 82.1 µM | GI50 (SK-MEL-2 melanoma): 16 µM | TGI (SK-MEL-2 melanoma): 52.2 µM | GI50 (OVCAR-4 ovarian): 12 µM | TGI (OVCAR-4 ovarian): > 100 µM | GI50 (SK-MEL-5 melanoma): 11.2 µM | TGI (SK-MEL-5 melanoma): 24.3 µM | GI50 (UACC-62 melanoma): 10.2 µM | TGI (UACC-62 melanoma): 23.3 µM | GI50 (CAKI-1 renal): 10.5 µM | TGI (CAKI-1 renal): 47.5 µM | GI50 (KM12 colon): 4.2 µM | TGI (KM12 colon): 16.1 µM | GI50 (K-562 leukemia): 4.11 µM | TGI (K-562 leukemia): 37.4 µM | GI50 (HT29 colon): 13.9 µM | TGI (HT29 colon): 29.2 µM | GI50 (MALME-3M melanoma): 10.3 µM | TGI (MALME-3M melanoma): 26.4 µM | GI50 (UO-31 renal): 6.74 µM | TGI (UO-31 renal): 28.7 µM | GI50 (LOX IMVI melanoma): 9.87 µM | TGI (LOX IMVI melanoma): 21.5 µM | GI50 (TK-10 renal): 20.4 µM | TGI (TK-10 renal): 80.8 µM | GI50 (SR leukemia): 2.43 µM | TGI (SR leukemia): 13.2 µM | GI50 (SW-620 colon): 10.7 µM | TGI (SW-620 colon): 26.9 µM | GI50 (RPMI-8226 leukemia): 6.89 µM | TGI (RPMI-8226 leukemia): 32.3 µM | GI50 (EKVX NSCLC): 15.4 µM | TGI (EKVX NSCLC): 68 µM | GI50 (RXF 393 renal): 5.82 µM | TGI (RXF 393 renal): 22.2 µM | GI50 (NCI-H226 lung): 18 µM | TGI (NCI-H226 lung): > 100 µM | GI50 (HS 578T breast): 2.78 µM | TGI (HS 578T breast): 36.1 µM | GI50 (HCT-15 colon): 8.13 µM | TGI (HCT-15 colon): 22.1 µM | GI50 (DU-145 prostate): 2.83 µM | TGI (DU-145 prostate): 12.5 µM | GI50 (A549 NSCLC): 20.7 µM | TGI (A549 NSCLC): 93.8 µM | GI50 (M14 melanoma): 12.9 µM | TGI (M14 melanoma): 26.7 µM | GI50 (HOP-62 NSCLC): 14.2 µM | TGI (HOP-62 NSCLC): 37.2 µM | GI50 (SNB-75 CNS): 6.11 µM | TGI (SNB-75 CNS): 24.5 µM | GI50 (OVCAR-8 ovarian): 8.34 µM | TGI (OVCAR-8 ovarian): > 100 µM | GI50 (CCRF-CEM leukemia): 3.53 µM | TGI (CCRF-CEM leukemia): 26.7 µM | GI50 (COLO 205 colon): 15.5 µM | TGI (COLO 205 colon): 28.8 µM | GI50 (T-47D breast): 10.6 µM | TGI (T-47D breast): 54.2 µM | GI50 (MDA-MB-435): 4.34 µM | TGI (MDA-MB-435): 31.9 µM | GI50 (NCI-H522 lung): 5.56 µM | TGI (NCI-H522 lung): 21 µM | GI50 (SK-OV-3 ovarian): 23.4 µM | TGI (SK-OV-3 ovarian): 99.5 µM | GI50 (OVCAR-5 ovarian): 13 µM | TGI (OVCAR-5 ovarian): 27.1 µM | GI50 (786-0 renal): 8.1 µM | TGI (786-0 renal): 20.6 µM | GI50 (HCC-2998 colon): 13 µM | TGI (HCC-2998 colon): 25.6 µM | GI50 (NCI-H23 lung): 9.55 µM | TGI (NCI-H23 lung): 24.1 µM | GI50 (A498 renal): 3.69 µM | TGI (A498 renal): 18.8 µM | GI50 (HOP-92 NSCLC): 8.55 µM | TGI (HOP-92 NSCLC): 82.6 µM | GI50 (SF-268 CNS): 6.8 µM | TGI (SF-268 CNS): 21.1 µM | GI50 (MCF7 breast): 4.35 µM | TGI (MCF7 breast): 18.9 µM | GI50 (SF-295 CNS): 10.1 µM | TGI (SF-295 CNS): 30.9 µM | GI50 (SF-539 CNS): 3.22 µM | TGI (SF-539 CNS): 26 µM | GI50 (ACHN renal): 11.9 µM | TGI (ACHN renal): 37.9 µM | GI50 (SK-MEL-28 melanoma): 11.8 µM | TGI (SK-MEL-28 melanoma): 24.6 µM | GI50 (IGROV1 ovarian): 6.11 µM | TGI (IGROV1 ovarian): 42.1 µM
